Consider 22 compounds from ChEMBL document CHEMBL5107976, “Chalcone-amide, a privileged backbone for the design and development of selective SARS-CoV/SARS-CoV-2 papain-like protease inhibitors” (Eur J Med Chem, 2022).

Converted amounts (≈) assume the structure as drawn.

Data set [1] can be described thus: Inhibition of SARS-CoV PLpro (1541 to 1855 residues) using RLRGG-AMC as substrate preincubated for 5 mins followed by substrate addition measured after 6 mins by fluorescence based assay. Also on record: species or system Severe acute respiratory syndrome-related coronavirus.
Data set [2] relates to Human rhinovirus sp. As to the kind of experiment: Antiviral activity against HRV infected in human HeLa cells assessed as inhibition in virus replication by plaque assay. Type of data set: functional, organism-based.
A short description of data set [3]: Inhibition of SARS-CoV PLpro using Z-Arg-Leu-Arg-Gly-Gly-AMC acetate as substrate by fluorometric assay. The arrangement: species or system Severe acute respiratory syndrome-related coronavirus.
Data set [4] addresses T1, Replicase polyprotein 1ab (Severe acute respiratory syndrome coronavirus 2, UniProt P0DTD1). Kind of data set: Inhibition of SARS-CoV-2 PLpro.
The subject of data set [5] is SARS-CoV-2. Kind of data set: Antiviral activity against SARS-CoV-2 infected in human Caco-2 cells expressing hACE2 assessed as reduction in virus replication. Type of data set: functional, organism-based. To be noted: Severe acute respiratory syndrome coronavirus 2, Caco-2.
Data set [6] has as its target T1, Replicase polyprotein 1ab. Kind of data set: Inhibition of C-terminal His-tagged SARS-CoV-2 PLpro BetaCoV/Wuhan/WIV04/2019 strain (1564 to 1876 residues) expressed in Escherichia coli BL21(DE3) using FRET substrate measured after 3 hrs by enzymatic assay.
The subject of data set [7] is SARS-CoV-2. Kind of data set: Antiviral activity against SARS-CoV-2 infected in African green monkey Vero E6 cells assessed as reduction in viral replication at MOI of 0.5 incubated for 23 hrs by plaque assay. To be noted: Severe acute respiratory syndrome coronavirus 2, Vero C1008, 23 h. The format is functional, organism-based.
Data set [8] in a line: Cytotoxicity against African green monkey Vero E6 cells assessed as reduction in cell viability. Type of data set: toxicity, cell-based, Vero C1008. To be noted: chlorocebus sabaeus.
Data set [9] concerns SARS-CoV-2. As to the kind of experiment: Antiviral activity against SARS-CoV-2 infected in human Caco-2 cells expressing hACE2 assessed as reduction in virus replication incubated for 48 hrs by Western blot analysis. To be noted: Severe acute respiratory syndrome coronavirus 2, Caco-2, 48 h. The format is functional, organism-based.

Take `COc1ccc(CNC(=O)C2CCN(Cc3cccc4ccccc34)CC2)cc1`: it took 59.2 µM to reach half-maximal inhibition in data set [1] (IC50). On to `CCOc1cc(O)c(C(=O)/C=C/c2ccc(OC)cc2)c(OC)c1`, for which the IC50 in data set [2] is 0.045 µg/mL (≈ 0.137 µM).

For `Cc1ccc(N(C)C)cc1C(=O)N[C@H](C)c1cccc2ccccc12`, the IC50 in [3] was found to be 4 µM.

Compound `Cc1ccc(NC2CNC2)cc1C(=O)N[C@H](C)c1cccc(-c2ccc(CNC[C@H]3CCCO3)s2)c1` displayed an IC50 in [4] of 0.76 µM. Consider `C[C@H](c1cccc2ccccc12)N(C)Cc1ccc(O)cc1`, for which the EC50 in data set [5] worked out at 8.32 µM. The compound `Cc1ccc(N)cc1CN(C)[C@H](C)c1cccc2ccccc12` registered an IC50 in data set [6] of 0.99 µM. Further, in data set [5], the concentration for a half-maximal effect (EC50) is 8.89 µM. Turning to `Cc1cc(N)ccc1C(=O)N[C@H](C)c1cccc2ccccc12`, in data set [3], 1.2 µM corresponded to half-maximal inhibition (IC50). In data set [7], the EC50 came out at 15.8 µM. The CC50 in data set [8] is over 500 µM. `C[C@H](c1cccc2ccccc12)N1Cc2ccc(O)cc2C1` returned an IC50 in data set [3] of 4.5 µM. As for `COc1ccc(CNC(=O)c2c(O)cc(OCC=C(C)C)cc2OC)cc1`, in data set [2], the IC50 was 0.0072 µg/mL (≈ 0.0194 µM).

The compound `C[C@@H](NC(=O)c1ccccc1Cl)c1cccc2ccccc12` showed an IC50 in data set [3] of 6.5 µM. The EC50 in data set [7] was 1.77 µM. In addition, the CC50 in data set [8] is 376 µM. With `C[C@H](c1cccc2ccccc12)N1CCC(C(=O)NCc2cccc(NC(=O)N3CCN(C)CC3)c2)CC1`, the EC50 in data set [9] was 0.6 µM. As for `COc1cc(O)ccc1CN(C)[C@H](C)c1cccc2ccccc12`, half-maximal inhibition in data set [6] (IC50) was put at 0.58 µM. Regarding `C[C@H](c1cccc2ccccc12)N1CCC(C(=O)NCc2cc(F)cc(NC(=O)CN(C)C)c2)CC1`, in [9], the EC50 was found to be 0.22 µM. In data set [3], `Cc1cc(NS(C)(=O)=O)ccc1C(=O)N[C@H](C)c1cccc2ccccc12` registered an IC50 of 4.8 µM. Regarding `C[C@H](c1cccc2ccccc12)N1CCC(C(=O)NCc2cc(F)cc(NC(=O)N3CCN(C)CC3)c2)CC1`, the EC50 in data set [9] stood at 0.18 µM. In data set [3], `CNS(=O)(=O)c1ccc(C)c(C(=O)N[C@H](C)c2cccc3ccccc23)c1` returned an IC50 of 4 µM. The same measure, in the same setting: next, `C[C@H](c1cccc2ccccc12)N1Cc2ccc(N)cc2C1`: 4.9 µM.

For the compound `CCOc1cc(O)c(C(=O)NCc2ccc(NC)cc2)c(OC)c1`, in [2], the IC50 came out at 0.022 µg/mL (≈ 0.0666 µM). Consider `C[C@H](c1cccc2ccccc12)N1Cc2ccccc2C1`, for which, in data set [3], the IC50 was 2.9 µM. Besides, in data set [7], the EC50 came out at 7.85 µM. In addition, in data set [8], the CC50 came out at 442 µM. `Cc1ccsc1C(=O)N[C@H](C)c1cccc2ccccc12`: the IC50 in data set [3] was determined as 14 µM. The EC50 in data set [7] was 4.74 µM. For the same compound, in data set [8], the CC50 is over 500 µM. With `CCOc1cc(O)c(C(=O)NCc2ccc(OC)cc2)c(OC)c1`, the IC50 in data set [2] is 0.014 µg/mL (≈ 0.0422 µM).

`Cc1ccc(N)cc1C(=O)N[C@H](C)c1cccc2ccccc12`: the EC50 in data set [5] was 25.1 µM.

As a reminder, the IC50 is the concentration needed to halve the response being measured. For orientation: EC50 means the concentration giving half of the maximal effect. One may read the CC50 as the concentration at which the toxic effect on the cells reaches its halfway point.
